In article PMC3930583 (PLoS Pathogens, 2014):

Key:
GST-AvrBsT [1] = target: T1, GST-AvrBsT (Xanthomonas euvesicatoria, UniProt A0ABS8LK00); format: biochemical
GST-AvrBsT [2] = target: T1, GST-AvrBsT; format: biochemical; remark: listed apart in the source

CC(=O)SCCNC(=O)CCNC(=O)[C@H](O)C(C)(C)COP(=O)(O)OP(=O)(O)OC[C@H]1O[C@@H](n2cnc3c(N)ncnc32)[C@H](O)[C@@H]1OP(=O)(O)O [14C-acetyl-coenzyme A]
14C autoacetylation, SDS-PAGE autoradiography (GST-AvrBsT [1]): Wild-type GST-AvrBsT activity resulted in auto-acetylation of the enzyme and trans-acetylation of GST-ACIP1

O=P(O)(O)O[C@H]1[C@H](OP(=O)(O)O)[C@@H](OP(=O)(O)O)[C@H](OP(=O)(O)O)[C@@H](OP(=O)(O)O)[C@H]1OP(=O)(O)O [inositol hexakisphosphate]
14C autoacetylation with and without IP6, autoradiography (GST-AvrBsT [2]): Auto-acetylation of GST-AvrBsT was detected in the presence of IP6 but not its absence
